Data published in patent US20080193376A1, “Methods of Enhanced Detection and Therapy of Inflamed Tissues Using Immune Modulation” (priority 2004, published 2008).

Test system: atherosclerotic plaques
Test: Intravascular catheter beta probe detection of FDG in rabbit aorta
Type: in vivo, New Zealand white rabbits
From the text: Male New Zealand white rabbits ranging from 2.5 to 3.0 kilograms in weight (Charles River Breeding Lab) were maintained on a 2% cholesterol-6% peanut oil diet (ICN) for 10 weeks. After 1 week on the peanut oil diet, the abdominal aorta was denuded of endothelium by a modified Baumgartner technique. Briefly, each animal was anesthetized with a mixture of ketamine and xylazine and the right femoral artery was isolated. Subsequently, a 4 F Fogarty embolectomy catheter was introduced via arteriotomy and advanced under fluoroscopic guidance to the level of the diaphragm. The balloon was then inflated to 3 psi (pounds per square inch) above balloon inflation pressure and three passes were made down the abdominal aorta with the inflated catheter. […]
Additionally, FDG was administered intravenously to two additional rabbits. […] Aortic segments at previously assessed sites of plaque and control areas were excised and examined for uptake of FDG by standard well counting.
Sensitivity of the probe was 850±11 cps/μCi (mean±SD). Catheter-determined activity correlated well with well counting measurements, (r=0.89, P<0.001, FIG. 3). Moreover, atherosclerotic regions were readily distinguished from control by catheter mounted beta probe, (11.9±2.1 [n=9, range 9.7±15.3] vs. 4.8±1.9[n=14, range 1.3±7.3], cps in atherosclerotic vs. control regions, respectively, P<0.001; FIG. 4).

FDG activity by catheter mounted beta probe (atherosclerotic regions, n=9, FDG intravenously): 11.9±2.1 cps
FDG activity by catheter mounted beta probe (control regions, n=14, FDG intravenously): 4.8±1.9 cps
Structure (SMILES): OC[C@H]1OC(O)[C@H]([18F])[C@@H](O)[C@@H]1O (some centres unmarked) [FDG, ^18F-Fluorodeoxyglucose]
